This is an account of results in article PMC8486167, “Orally Active Peptide Vector Allows Using Cannabis to Fight Pain While Avoiding Side Effects” (Journal of Medicinal Chemistry, 2021).

Series [1] deals with T1, CB1R–5HT2AR heteromer (Homo sapiens, UniProt P28223).
T1 construct: expressed in transfected cells; host or cells: HEK-293T / HEK-293
The experiment in a line: cAMP production (HTRF), decrease in FK-induced cAMP. The class given is cell-based. To be noted: for FK-induced cAMP production after agonist: agonist 100 nM, all groups. As for the experimental part:
Sequences encoding YFP Venus protein amino acid residues 1–155 and 156–238 were subcloned in the pcDNA3.1 vector to obtain the YFP Venus hemitruncated proteins. The human cDNAs for 5HT2AR and CB1R, cloned into the pcDNA3.1, were amplified and subcloned as described[18] to give 5HT2AR-cYFP and CB1R-nYFP. Human embryonic kidney (HEK-293T) cells obtained from ATCC were grown in Dulbecco’s modified Eagle’s medium (DMEM) (Gibco) supplemented with 2 mM L-glutamine, 100 μg/mL sodium pyruvate, 100 U/mL penicillin/streptomycin, MEM nonessential amino acid solution (1/100), and 5% (v/v) heat-inactivated fetal bovine serum (FBS) (all supplements from Invitrogen, Paisley, Scotland, UK). Cells were maintained at 37 °C in an atmosphere of 5% CO2. HEK-293T cells were transfected with the corresponding fusion protein cDNA by the polyethylenimine (Sigma) method, as described before.[18]
For cAMP production, homogeneous time-resolved fluorescence energy transfer (HTRF) assays were performed as previously described.[18] […] Fluorescence at 665 nm was analyzed on a PHERAstar Flagship microplate reader equipped with an HTRF optical module (BMG Lab technologies, Offenburg, Germany).
In general terms: Changes in cAMP serve as a functional read-out for many G protein-coupled receptors.

Series [2] deals with T1, CB1R–5HT2AR heteromer. The experiment in a line: ERK-1/2 phosphorylation assay (α-screen). The class given is cell-based.
Method: Phosphorylation was determined in white ProxiPlate 384-well microplates (PerkinElmer Life Sciences) by the α-screen bead-based technology using the amplified luminescent proximity homogeneous assay kit (PerkinElmer Life Sciences) and using the Enspire multimode plate reader (PerkinElmer Life Sciences). Phosphorylation is expressed in arbitrary units, ALPHAcounts, as measured by light emission at 520–620 nm of the acceptor beads.
Series [3] concerns mice. As to the kind of experiment: Novel object recognition test (THC memory impairment). The class given is in vivo. To be noted: mouse; THC 3 mg/kg IP. As to the method: On day 1 (Habituation), mice were habituated for 9 min to the V-maze in which the task was performed. The following day (Training), mice were placed in the V-maze for 9 min, two identical objects were presented and the time that the mice spent exploring each object was recorded. Mice were again placed in the maze 24 h later for 9 min (Test), one of the familiar objects was replaced with a novel object and the total time spent exploring each of the two objects (novel and familiar) was recorded. Object exploration was defined as the orientation of the nose to the object at less than 2 cm. A discrimination index was calculated as the difference between the time spent exploring the novel or familiar object divided by the total time exploring the two objects. A higher discrimination index is considered to reflect greater memory retention for the familiar object.
Thirty min after peptide administration, mice received an IP injection of vehicle (5% v/v of ethanol, 5% v/v of Cremophor-EL, and 90% v/v saline) or 3 mg/kg of THC dissolved in vehicle.

Series [4] concerns mice. As to the kind of experiment: Hot-plate test (THC-induced analgesia). To be noted: mouse; THC 10 mg/kg IP. (In hot-plate and tail-flick tests a longer latency is read as antinociception.)
The subject of series [5] is bEnd.3 brain endothelial cells. To be noted: 5(6)-carboxyfluorescein-labeled peptides; bEnd.3 cells; fluorescence in basolateral chamber after 24 h; n = 3–6.
Method: bEnd.3 brain endothelial cells (ATCC CRL-2299TM) were grown as a monolayer in DMEM supplemented with 10% FBS and 1% penicillin/streptomycin solution (Gibco, USA). Cells were cultured in a humidified atmosphere of 95% air and 5% CO2 at 37 °C (MCO-18AIC (UV), Sanyo, Japan), with daily medium replacement.
The translocation capabilities of 5(6)-carboxyfluorescein-labeled peptides were determined using a protocol previously described.[30],[31] After the experiment, the integrity of the endothelial barrier was checked by measuring the permeability of a 4 kDa fluorescently labeled dextran (FD4) as previously described.[25] Experiments were carried out on different days using independently grown cell cultures.
Series [6] deals with mice. As to the kind of experiment: Immunogenicity: mice immunization and serum ELISA. Format: in vivo, mouse. To be noted: CD-1 mice, IV, 5 consecutive days and boost at day 15; 17 at 100 μg/dose, 17-KLH at 30 μg; sera days 0, 9, 19; plates coated with 17-BSA. As for the experimental part: Experiments were performed at the ICTS “NANBIOSIS” Custom Antibody Service (CAbS, CIBER-BBN, IQAC-CSIC). The immune response to 17 was assessed in outbred Swiss ICR (CD-1) mice strain Hsd:ICR (CD-1) (Envigo RMS, The Netherlands), following the immunization schedule in Figure 7. Animals were housed under standard conditions in the CID-CSIC animal facility. Animal experimental procedures were conducted in accordance with protocols approved by CSIC Committee on Ethics of Animal Experiments and Biosafety, as well as the Spanish National Committee on Ethics and Animal Welfare. Briefly, a first group of 10 female mice received IV doses of 17 (200 μL, 20 mg/kg, PBS + 2% DMSO), a second group of 5 mice received IV doses of 17-KLH conjugate (200 μL, 30 μg) and a third group of 5 mice received IVdoses of PBS (200 μL, negative control). The 17-KLH conjugate, administered with Freund’s adjuvant, was also used to generate polyclonal antibody (positive control) (data not shown). Serum samples were collected by tail vein bleeds on days 0, 9, and 19. […] The peptide-specific humoral response was determined by indirect ELISA. […] Color development was stopped with 4 N H2SO4 (50 μL/well) after 30 min at r.t., and absorbance read at 450 nm. Titers in a log10 scale were expressed as the reciprocal of the last dilution giving the absorbance recorded in the control wells (serum at day 0) plus 2 SD.
(In general: An ELISA detects its analyte on a solid surface through an enzyme-linked reagent.)

The subject of another series is trypsin. To be noted: 24 h vs 0 h, HPLC main peak area, mean ± SEM, n = 2. As for the experimental part: Peptide samples, incubated with trypsin, were collected and analyzed as before.[60] For human serum digestion, peptide [1000 μM, 2% dimethyl sulfoxide (DMSO) in filtered H2O] was added to human serum (Sigma, St Louis, Missouri) in a 1:1 ratio and incubated at 37 °C with gentle shaking. At 0 min and 24 h, aliquots were taken and proteolysis was stopped with CH3CN (80% in filtered H2O), chilled at 0 °C for 15 min to precipitate serum proteins, and centrifuged at 13,000 rpm at 4 °C for 10 min. The supernatant was collected and analyzed by analytical RP-HPLC and LC–MS as described before,[60] with a 0–95% linear gradient of CH3CN over 15 min. All experiments are performed in duplicate and data were fitted with GraphPad Prism.

Where [7] appears, read: RIM 1 μM vs DOI 100 nM, MDL 300 nM vs WIN 100 nM, no peptide.

Square brackets hold non-standard residues; d marks the D form. Ends that are not written are not given here. Peptide text beside a SMILES is read from it.

T1 sequence (P28223 whole entry, one chain of several): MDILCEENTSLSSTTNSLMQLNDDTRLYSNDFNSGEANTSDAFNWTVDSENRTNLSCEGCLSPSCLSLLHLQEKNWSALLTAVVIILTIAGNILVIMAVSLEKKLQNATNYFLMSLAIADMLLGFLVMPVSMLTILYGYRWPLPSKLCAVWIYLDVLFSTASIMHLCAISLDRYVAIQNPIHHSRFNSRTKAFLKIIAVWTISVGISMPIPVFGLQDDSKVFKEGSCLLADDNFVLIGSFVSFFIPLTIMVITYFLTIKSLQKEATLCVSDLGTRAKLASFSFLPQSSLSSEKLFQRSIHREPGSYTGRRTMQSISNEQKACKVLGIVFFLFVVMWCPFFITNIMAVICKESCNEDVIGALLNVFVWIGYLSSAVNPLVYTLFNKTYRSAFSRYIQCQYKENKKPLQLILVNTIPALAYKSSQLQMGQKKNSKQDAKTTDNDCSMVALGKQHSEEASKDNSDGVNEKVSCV

Consider `COc1cc(CC(C)N)c(OC)cc1I` (stereo not shown) [DOI, 2,5-dimethoxy-4-iodoamphetamine], for which the “FK-induced cAMP production after agonist” value at CB1R–5HT2AR heteromer [1] (0.5 μM FK) is on record as “reduced cAMP production”.

As for `Cc1c(C(=O)NN2CCCCC2)nn(-c2ccc(Cl)cc2Cl)c1-c1ccc(Cl)cc1` [RIM, rimonabant], on CB1R–5HT2AR heteromer [1] (setting [7]), the “antagonist block of the partner receptor's agonist signal (cross-antagonism, cAMP)” value is given as “blocked the decrease in FK-induced cAMP or the increase in pERK triggered by the 5HT2AR agonist DOI”. Besides, the “antagonist block of the partner receptor's agonist signal (cross-antagonism, pERK)” value at CB1R–5HT2AR heteromer [2] (setting [7]) was “blocked the decrease in FK-induced cAMP or the increase in pERK triggered by the 5HT2AR agonist DOI”.

Take `CCCCCc1cc(O)c2c(c1)OC(C)(C)[C@@H]1CCC(C)=C[C@@H]21` [THC, Δ^9-tetrahydrocannabinol]: the “THC effect in novel object recognition test” value in the series with mice [3] was “memory impairment”. Besides, in the series with mice [4], the “THC effect in hot-plate test” value is on record as “analgesic effects”.

Regarding `Cc1c(C(=O)c2cccc3ccccc23)c2cccc3c2n1[C@H](CN1CCOCC1)CO3` [WIN, WIN 55,212-2], the “FK-induced cAMP production after agonist” value at CB1R–5HT2AR heteromer [1] (0.5 μM FK) was “reduced cAMP production”.

Take `CC[C@@H](C)[C@@H](NC(=O)CNC(=O)[C@@H](C)NC(=O)[C@H](Cc1c[nH]c2ccccc12)NC(=O)[C@H](CC(C)C)NC(=O)[C@@H](NC(=O)[C@H](Cc1ccc(O)cc1)NC(=O)[C@H](CCSC)NC(=O)[C@H](Cc1ccc(O)cc1)NC(=O)[C@H](C)NC(=O)[C@H](Cc1ccc(O)cc1)NC(=O)[C@@H](N)C(C)C)[C@@H](C)CC)C(=O)N[C@H](CC(C)C)C(=O)N[C@H](CCCCN)C(=O)N[C@H](CCCNC(=N)N)C(=O)N[C@H](Cc1c[nH]c2ccccc12)C(N)=O` [compound 13] (H-VYAYMYILW[dA]G[dI][dL][dK][dR][dW]-NH2): the “translocation across the transwell BBB model” value in series [5] was “translocated more efficiently than 14 and 16”.

Turning to `CC[C@@H](C)[C@@H](NC(=O)CNC(=O)[C@@H](C)N)C(=O)N[C@H](CC(C)C)C(=O)N[C@H](CCCCN)C(=O)N[C@H](CCCNC(=N)N)C(=O)N[C@H](Cc1c[nH]c2ccccc12)C(=O)N[C@@H](CCCCN)C(=O)N[C@H](C(=O)N[C@@H](CC(C)C)C(=O)N[C@H](C(=O)N[C@@H](CC(C)C)C(=O)N[C@H](C(=O)N[C@@H](CC(C)C)C(=O)N[C@H](C(=O)N[C@H](C(N)=O)C(C)C)C(C)C)[C@@H](C)CC)C(C)C)[C@@H](C)O` [compound 15] (H-[dA]G[dI][dL][dK][dR][dW]KTLVLILVV-NH2), in series [5], the “translocation across the transwell BBB model” value was “translocated more efficiently than 14 and 16”.

Take `CC[C@@H](C)[C@@H](NC(=O)CNC(=O)[C@@H](C)NC(=O)[C@H](NC(=O)[C@@H](Cc1ccc(O)cc1)NC(=O)[C@@H](C)NC(=O)[C@@H](Cc1ccc(O)cc1)NC(=O)[C@@H](CCSC)NC(=O)[C@@H](Cc1ccc(O)cc1)NC(=O)[C@H](NC(=O)[C@@H](CC(C)C)NC(=O)[C@H](N)Cc1c[nH]c2ccccc12)[C@H](C)CC)C(C)C)C(=O)N[C@H](CC(C)C)C(=O)N[C@H](CCCCN)C(=O)N[C@H](CCCNC(=N)N)C(=O)N[C@H](Cc1c[nH]c2ccccc12)C(N)=O` [compound 17] (H-[dW][dL][dI][dY][dM][dY][dA][dY][dV][dA]G[dI][dL][dK][dR][dW]-NH2): the “immunogenicity: peptide-specific antibody response (ELISA titers)” value with mice [6] is given as “did not evoke any detectable immune response”.

As to AGILKRWKTLVLILVV-NH2 [compound 9], the “proteolytic stability: unaltered peptide remaining after trypsin incubation” value in the series on trypsin was “poor survival”.

In the case of “LIKTVFAFCSMLCLLNSTVNPIIYALRGRKKRRQRRR [TM7-Tat, peptide TM7-Tat, used as a negative control]”, on CB1R–5HT2AR heteromer [1] (DOI 100 nM, WIN 100 nM, MDL 300 nM, RIM 1 μM, 0.5 μM FK, n = 3–6), the “elimination of bidirectional cross-antagonism (FK-induced cAMP)” value is given as “not observed with TM7-Tat”. For the same compound, the “influence on G protein coupling preference of 5HT2AR” value on CB1R–5HT2AR heteromer [1] (FK-induced cAMP, 0.5 μM FK, WIN 100 nM or DOI 100 nM, transfected HEK-293T cells, n = 3–6) is on record as 5HT2AR remains Gi-coupled in the presence of interfering peptides. Also, on CB1R–5HT2AR heteromer [2] (DOI 100 nM, WIN 100 nM, MDL 300 nM, RIM 1 μM, % of basal, n = 4–9), the “elimination of bidirectional cross-antagonism (pERK)” value is “not observed with TM7-Tat”.

In the case of SKSKSKKTLVLILVV-NH2 [compound 10], the “proteolytic stability: unaltered peptide remaining after trypsin incubation” value with trypsin is recorded as “poor survival”.

Consider VYAYMYILWAGILKRW-NH2 [compound 5], for which the “proteolytic stability: unaltered peptide remaining after trypsin incubation” value in the series with trypsin is reported as “poor survival”.

As to VYAYMYILWSKSKSK-NH2 [compound 6], in the series with trypsin, the “proteolytic stability: unaltered peptide remaining after trypsin incubation” value is listed as “poor survival”.
